The values that follow come from US20060078584A1, “Multi-functional oxidizing composition” (priority 2004, published 2006).

Where two headings read alike, the source gives them in different places.

For data set [1] the following is noted: cited from earlier work.
A short description of data set [2]: Storage stability of dry blends (ambient and accelerated aging in humid oven). The class given is physicochemical. The settings on record: one month. Here is the method:
In all examples, active oxidant concentrations are expressed in weight percent and are determined by standard iodometric titration as described in the “OXONE Monopersulfate Compound Technical Information” Bulletin, No. H-42434-5, dated April 2000, published by E. I. du Pont de Nemours and Company.
A weighed sample (0.05-0.30 g) to be analyzed is dissolved in cold deionized water (<10° C., about 50 mL), treated with potassium iodide solution (10 mL 25% aqueous), acidified (10 mL 20% sulfuric acid), and titrated with standardized 0.1N sodium thiosulfate reagent to an endpoint visualized by a starch indicator. The total active oxidant content (active oxygen+active halogen) is expressed as percent active oxygen (% AO) and is calculated as follows: % AO=(0.8×Volume of titrant, mL)(Normality of titrant)/(Sample Weight, g).
OXONE monopersulfate compound (180 g, 90 wt. %) and anhydrous sodium dichloro-s-triazinetrione (20 g, 10 wt. %) were dry blended in a 250-ml high-density poly(propylene (HDPE) bottle. The mixture was placed on a laboratory roll mill for two hours to ensure complete blending of the components. The blended product was then divided into two portions. One portion was stored at ambient conditions (22±2° C., 55±5% relative humidity [RH]); the other in a humid oven at 50±2° C., 80±5% RH denoted as “accelerated aging”). Both portions were stored in sealed screw-cap HDPE bottles. Both samples were monitored on a weekly basis for one month to assess physical integrity and active oxidant loss. […]. […].

Data set [3] in a line: Solubility in water and in acidic potassium monopersulfate solution. To be noted: in a 20% potassium monopersulfate solution, pH of about 1.2.
[4] abbreviates: accelerated aging, 50° C., 80% RH.
Where [5] appears, read: accelerated aging, 50±2° C., 80±5% RH, sealed HDPE containers.

`CC1(C)C(=O)N(Cl)C(=O)N1Cl` [dichlorodimethylhydantion, 1,3-dichloro-5,5-dimethylhydantoin]: the Solubility in water in data set [1] was 0.2 g/100 g water.

Take `CC1(C)C(=O)N(Br)C(=O)N1Cl` [bromochlorodimethylhydantion, 3-bromo-1-chloro-5,5-dimethylhydantoin]: the Solubility in water in data set [1] was 0.2 g/100 g water.

For the molecule `CC1(C)C(=O)N(Br)C(=O)N1Br` [dibromodimethylhydantion, 1,3-dibromo-5,5-dimethylhydantoin], in data set [1], the Solubility in water is reported as 0.25 g/100 g water.

Take `O=c1nc([O-])n(Cl)c(=O)n1Cl.[Na+]` [Comparative Example E, Anhydrous sodium dichloro-s-triazinetrione]: in data set [2] (setting [4]), the “Active oxidant retention / loss” value is given as “acceptable active oxidant stability”, the “Chlorine odor / halogen evolution” value was “characteristic chlorine odor” and the “Flowability” value was “good flowability”. Moreover, in data set [2] (setting [5]), the “Chlorine Odor (degree 0-5)” value is recorded as 3 and the Flowability result is recorded as “Free-flowing”. Also, the “Total % AO Remaining (%)” value in data set [2] (total oxidant (active oxygen + active halogen) remaining after accelerated storage, 50° C., 80% RH) is recorded as 93%. Besides, the Solubility in water entry in data set [1] (neutral pH (about pH 6-7), 25° C.) is given as “about 24 g/100 g H2O”. Besides, the Solubility result in data set [3] is recorded as “about 1 g/100 mL”.
